Key:
[1] = tested on: WT littermates (C57BL/6J × 129S2/Sv); assay: Cocaine-induced locomotor activity, co-injection, WT littermates; format: in vivo, mice; conditions: 5, 15 and 25 mg/kg co-injected with cocaine 10 mg/kg
Protocol: The Taarl^-/- (TAAR1-KO) mice were obtained from Lundbeck ([Wolinsky et al., 2007]). All wild type (WT) and TAAR1-KO mice used for experiments were generated from TAAR1-KO heterozygous mice in a C57BL/6J x 129S1/Sv mixed background.
(§1) Experimentally naïve mice, of at least 12 weeks of age, were used for all behavioral experiments. The mice were randomly assigned to treatment or control groups, balanced by sex and weight. Locomotor activity was assessed using the automated locomotor analysis monitors (Omnitech Electronics, Columbus, OH, United States). The apparatus included four open field monitors. Each Open Field monitor consisted of sets of 16 light beams arrayed in the horizontal X and Y axes. The hardware detected beams broken by the animal, which allowed the software to determine the location of the mouse in the cage. Total distance covered by mice was used to characterize locomotor activity of the animals. The monitors were divided into four compartments (20 cm × 20 cm). Animals were tested individually for defined periods with 5-min intervals. The mice were first weighed and then placed into the apparatus, allowing for 30 min habituation. […] The locomotor activity was then measured for additional 1 h. […]
The locomotor activity was assessed for 60 min following the injection. […]

[2] = tested on: WT littermates (C57BL/6J × 129S2/Sv); assay: Basal locomotor activity in WT littermates of TAAR1-KO mice; format: in vivo; conditions: 5 and 25 mg/kg alone, 60 min
Protocol: (§2) The Taarl^-/- (TAAR1-KO) mice were obtained from Lundbeck ([Wolinsky et al., 2007]). All wild type (WT) and TAAR1-KO mice used for experiments were generated from TAAR1-KO heterozygous mice in a C57BL/6J x 129S1/Sv mixed background. Experimentally naïve mice, of at least 12 weeks of age, were used for all behavioral experiments. The mice were randomly assigned to treatment or control groups, balanced by sex and weight. Locomotor activity was assessed using the automated locomotor analysis monitors (Omnitech Electronics, Columbus, OH, United States). The apparatus included four open field monitors. Each Open Field monitor consisted of sets of 16 light beams arrayed in the horizontal X and Y axes. The hardware detected beams broken by the animal, which allowed the software to determine the location of the mouse in the cage. Total distance covered by mice was used to characterize locomotor activity of the animals. The monitors were divided into four compartments (20 cm × 20 cm). Animals were tested individually for defined periods with 5-min intervals. The mice were first weighed and then placed into the apparatus, allowing for 30 min habituation. […] The locomotor activity was then measured for additional 1 h. […] The locomotor activity was assessed for 60 min following the injection. […]

[3] = tested on: WT littermates (C57BL/6J x 129S2/Sv); assay: Stereotypic counts, co-injection with cocaine, WT littermates; format: in vivo, mice; conditions: 15 and 25 mg/kg co-injected with cocaine 10 mg/kg
Protocol: as §1
Supplementary file Image_2.TIF: FIGURE S2 In vivo studies with TAAR1-KO mice and compound 22 on stereotypic counts activity. […] The sum of stereotypic counts was assessed over 60 min after the injection of amphetamine and compound 22 in WT (solid bars) or TAAR1-KO mice (spotted bars). […] The sum of stereotypic counts was assessed over 60 min following the injection in WT (solid bars) or TAAR1-KO mice (dotted bars). […]

TAAR1 = tested on: TAAR1; parameters: method as in Lam et al., 2015b; conditions: previous study; ref Lam et al., 2015b; read-out: IC50 (TAAR1 antagonist); cited from earlier work
TAAR1-KO mice = assay: Basal locomotor activity in TAAR1-KO mice; format: in vivo; conditions: 5 and 25 mg/kg alone, 60 min
Protocol: as §2

Clc1ccc(CNCc2ccc(Cn3cncn3)cc2)c(Cl)c1 [compound 22]
effect on locomotor stimulating effects of cocaine [1]: significantly potentiate | effect on basal locomotor activity [2]: did not significantly alter | stereotypic counts [3]: enhanced stereotypic counts | IC50 (TAAR1): > 100 µM | effect on basal locomotor activity (TAAR1-KO mice): did not significantly alter

From paper PMC6131539, “Behavioral Effects of a Potential Novel TAAR1 Antagonist” (Frontiers in Pharmacology, 2018)
